biological target: T1, STING (Homo sapiens, UniProt Q86WV6, G230A/H232R/R293Q/R71H); assay: Reporter gene expression assay in THP1-Dual cells (IRF pathway Lucia luciferase, 2',3'-cGAMP stimulation); format: cell-based; settings: 10 min preincubation, 5 μM 2',3'-cGAMP, 20 hr, IRF reporter QUANTI-Luc, read-out: THP-1 (HAQ) Activity
T1 construct: host or cells: THP1-Dual cells (human THP-1 monocyte line with Lucia/SEAP reporters)
Method in brief: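 THP1-Dual cells preincubated 10 min with compound, then stimulated with 5 μM 2′,3′-cGAMP for 20 hr. Secreted Lucia luciferase (IRF reporter) measured in supernatant by luminescence; IC50 reported as ranges (A ≤1 μM, B >1–≤10 μM, C >10 μM).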

T1 sequence (Q86WV6 whole entry R71H/G230A/H232R/R293Q): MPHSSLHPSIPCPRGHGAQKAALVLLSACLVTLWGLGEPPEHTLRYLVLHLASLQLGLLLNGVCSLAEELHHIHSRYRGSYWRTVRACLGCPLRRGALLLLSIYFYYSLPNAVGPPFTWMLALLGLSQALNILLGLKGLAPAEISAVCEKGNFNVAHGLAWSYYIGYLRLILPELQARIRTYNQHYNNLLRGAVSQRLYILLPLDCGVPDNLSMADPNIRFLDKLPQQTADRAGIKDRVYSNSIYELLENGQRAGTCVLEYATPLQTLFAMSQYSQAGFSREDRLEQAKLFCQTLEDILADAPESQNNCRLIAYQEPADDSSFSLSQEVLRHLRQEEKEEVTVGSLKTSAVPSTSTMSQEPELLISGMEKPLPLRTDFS

Row | SMILES | IC50 [µM]
1 | O=C(NCc1ccco1)Nc1ccc2c(c1)OCC(=O)N2Cc1ccccc1 [Example 130, 1-(4-benzyl-3-oxo-3,4-dihydro-2H-benzo[b][1, 4]oxazin-7-yl)-3-(furan-2-ylmethyl)urea] | > 10
2 | O=C(Nc1ccc2c(c1)OCC(=O)N2Cc1ccccc1)Nc1c[nH]nc1-c1ccc(Cl)cc1 [Example 131, 1-(4-benzyl-3-oxo-3,4-dihydro-2H-benzo[b][1, 4]oxazin-7-yl)-3-(3-(4-chlorophenyl)-1H-pyrazol-4-yl)urea] | > 10
3 | O=C(Nc1ccc2c(c1)OCC(=O)N2Cc1ccccc1)Nc1ccn(-c2ccccc2)n1 [Example 138, 1-(4-benzyl-3-oxo-3,4-dihydro-2H-benzo[b][1, 4]oxazin-7-yl)-3-(1-phenyl-1H-pyrazol-3-yl)urea] | > 10
4 | O=C(Nc1ccc2c(c1)OCC(=O)N2Cc1ccccc1C(=O)O)Nc1ccc2cc[nH]c2c1 [Example 143, 2-((7-(3-(1H-indol-6-yl)ureido)-3-oxo-2,3-dihydro-4H-benzo[b][1,4]oxazin-4-yl)methyl)benzoic acid] | > 10
5 | O=C(Nc1ccc2c(c1)OCC(=O)N2CC1CCCO1)Nc1ccc2cc[nH]c2c1 (centres unmarked) [Example 146, 1-(1H-indol-6-yl)-3-(3-oxo-4-((tetrahydro-furan-2-yl)methyl)-3,4-dihydro-2H-benzo[b][1, 4]oxazin-7-yl)urea] | 1 to 10
6 | O=C(Nc1ccc2c(c1)OCC(=O)N2Cc1ccncc1)Nc1ccc2cc[nH]c2c1 [Example 147, 1-(iH-indol-6-yl)-3-(3-oxo-4-(pyridin-4-ylmethyl)-3,4-dihydro-2H-benzo[b][1, 4]oxazin-7-yl)urea] | 1 to 10
7 | O=C(Nc1ccc2c(c1)OCC(=O)N2Cc1cccnc1)Nc1ccc2cc[nH]c2c1 [Example 148, 1-(1H-indol-6-yl)-3-(3-oxo-4-(pyridin-3-ylmethyl)-3,4-dihydro-2H-benzo [b][1, 4]oxazin-7-yl)urea] | 1 to 10
8 | O=C(Nc1ccc2c(c1)OCC(=O)N2Cc1ccccn1)Nc1ccc2cc[nH]c2c1 [Example 149, 1-(iH-indol-6-yl)-3-(3-oxo-4-(pyridin-2-ylmethyl)-3,4-dihydro-2H-benzo[b][1, 4]oxazin-7-yl)urea] | 1 to 10
9 | O=C(Nc1ccc2c(c1)OCC(=O)N2CC1CCOC1)Nc1ccc2cc[nH]c2c1 (centres unmarked) [Example 150, 1-(1H-indol-6-yl)-3-(3-oxo-4-((tetrahydrofuran-3-yl)methyl)-3,4-dihydro-2H-benzo [b][1, 4]oxazin-7-yl)urea] | 1 to 10
10 | O=C(Nc1ccc2c(c1)OCC(=O)N2Cc1nnco1)Nc1ccc2cc[nH]c2c1 [Example 151, 1-(4-((1,3,4′-oxadiazol-2-yl)methyl)-3-oxo-3,4-dihydro-2H-benzo[b][1, 4]oxazin-7-yl)-3-(1H-indol-6-yl)urea] | > 10
11 | O=C(Nc1ccc2c(c1)OCC(=O)N2Cc1cccc(O)c1)Nc1ccc2cc[nH]c2c1 [Example 152, 1-(4-(3-hydroxybenzyl)-3-oxo-3,4-dihydro-2H-benzo[b][1, 4]oxazin-7-yl)-3-(1H-indol-6-yl)urea] | 1 to 10
12 | O=C(Nc1ccc2c(c1)OCC(=O)N2Cc1ccc(CO)cc1)Nc1ccc2cc[nH]c2c1 [Example 153, 1-(4-(4-(hydroxymethyl)benzyl)-3-oxo-3,4-dihydro-2H-benzo[b][1, 4]oxazin-7-yl)-3-(1H-indol-6-yl)urea] | > 10
13 | O=C(Nc1ccc2c(c1)OCC(=O)N2Cc1cnccn1)Nc1ccc2cc[nH]c2c1 [Example 154, 1-(1H-indol-6-yl)-3-(3-oxo-4-(pyrazin-2-ylmethyl)-3,4-dihydro-2H-benzo[b][i, 4]oxazin-7-yl)urea] | > 10
14 | NC(=O)c1cccc(CN2C(=O)COc3cc(NC(=O)Nc4ccc5cc[nH]c5c4)ccc32)c1 [Example 155, 3-((7-(3-(1H-indol-6-yl)ureido)-3-oxo-2,3-dihydro-4H-benzo[b][1, 4]oxazin-4-yl)methyl) benzamide] | > 10
15 | O=C(Nc1ccc2c(c1)OCC(=O)N2Cc1cccc(CO)c1)Nc1ccc2cc[nH]c2c1 [Example 156, 1-(4-(3-(hydroxymethyl)benzyl)-3-oxo-3,4-dihydro-2H-benzo[b][1, 4]oxazin-7-yl)-3-(1H-indol-6-yl)urea] | 1 to 10
16 | N#CCN1C(=O)COc2cc(NC(=O)Nc3ccc4cc[nH]c4c3)ccc21 [Example 157, 1-(4-(cyanomethyl)-3-oxo-3,4-dihydro-2H-benzo[b][1, 4]oxazin-7-yl)-3-(1H-indol-6-yl)urea] | 1 to 10
17 | O=C(Nc1ccc2c(c1)OCC(=O)N2Cc1ccc[nH]c1=O)Nc1ccc2cc[nH]c2c1 [Example 158, 1-(1H-indol-6-yl)-3-(3-oxo-4-((2-oxo-1,2-dihydropyridin-3-yl)methyl)-3,4-dihydro-2H-benzo[b][1, 4]oxazin-7-yl)urea] | > 10
18 | O=C(Nc1ccc2c(c1)OCC(=O)N2Cc1ccccc1O)Nc1ccc2cc[nH]c2c1 [Example 159, 1-(4-(2-hydroxybenzyl)-3-oxo-3,4-dihydro-2H-benzo [b][1, 4]oxazin-7-yl)-3-(1H-indol-6-yl)urea] | 1 to 10
19 | O=C(Nc1ccc2c(c1)OCC(=O)N2Cc1ccncn1)Nc1ccc2cc[nH]c2c1 [Example 160, 1-(1H-indol-6-yl)-3-(3-oxo-4-(pyrimidin-4-ylmethyl)-3,4-dihydro-2H-benzo[b][1, 4]oxazin-7-yl)urea] | 1 to 10
20 | O=C(Nc1ccc2c(c1)OCC(=O)N2Cc1ccn[nH]1)Nc1ccc2cc[nH]c2c1 [Example 161, 1-(4-((1H-pyrazol-5-yl)methyl)-3-oxo-3,4-dihydro-2H-benzo[b][1, 4]oxazin-7-yl)-3-(1H-indol-6-yl)urea] | > 10
21 | O=C(Nc1ccc2c(c1)OCC(=O)N2Cc1cnc[nH]1)Nc1ccc2cc[nH]c2c1 [Example 162, 1-(4-((1H-imidazol-5-yl)methyl)-3-oxo-3,4-dihydro-2H-benzo[b][1, 4]oxazin-7-yl)-3-(1H-indol-6-yl)urea] | > 10
22 | O=C(Nc1ccc2c(c1)OCC(=O)N2Cc1ncno1)Nc1ccc2cc[nH]c2c1 [Example 163, 1-(4-((1,2,4-oxadiazol-5-yl)methyl)-3-oxo-3,4-dihydro-2H-benzo[b][1,4]oxazin-7-yl)-3-(1H-indol-6-yl)urea] | > 10
23 | O=C(Nc1ccc2c(c1)OCC(=O)N2Cc1ccon1)Nc1ccc2cc[nH]c2c1 [Example 164, 1-(1H-indol-6-yl)-3-(4-(isoxazol-3-ylmethyl)-3-oxo-3,4-dihydro-2H-benzo[b][1, 4]oxazin-7-yl)urea] | 1 to 10

Now from value to molecule:

Row | IC50 [µM] | SMILES
24 | ≤ 1 | O=C(Nc1ccc2c(c1)OCC(=O)N2Cc1ccc2nonc2c1)Nc1ccc2cc[nH]c2c1 [Example 129, l-(4-(benzo[c][1,2,5]oxadiazol-5-ylmethyl)-3-oxo-3,4-dihydro-2H-benzo[b][1,4]oxazin-7-yl)-3-(1H-indol-6-yl)urea]
25 | 1 to 10 | O=C(NCc1cc[nH]c1)Nc1ccc2c(c1)OCC(=O)N2Cc1ccccc1 [Example 132, 1-((1H-pyrrol-3-yl)methyl)-3-(4-benzyl-3-oxo-3,4-dihydro-2H-benzo[b][1, 4]oxazin-7-yl)urea]
26 | 1 to 10 | O=C(Nc1ccc2c(c1)CCCC2)Nc1ccc2c(c1)OCC(=O)N2Cc1ccccc1 [Example 133, 1-(4-benzyl-3-oxo-3,4-dihydro-2H-benzo[b][1, 4]oxazin-7-yl)-3-(5,6,7,8-tetrahydro-naphthalen-2-yl)urea]
27 | 1 to 10 | CC(C)(C)c1nc(CN2C(=O)COc3cc(NC(=O)Nc4ccc5cc[nH]c5c4)ccc32)no1 [Example 134, l-(4-((5-(tert-butyl)-1,2,4-oxadiazol-3-yl)methyl)-3-oxo-3,4-dihydro-2H-benzo[b][, 4]oxazin-7-yl)-3-(1H-indol-6-yl)urea]
28 | 1 to 10 | O=C(Nc1ccc2c(c1)OCC(=O)N2Cc1ccccc1)NC1CCc2ccccc2C1 (centres unmarked) [Example 135, 1-(4-benzyl-3-oxo-3,4-dihydro-2H-benzo[b][1, 4]oxazin-7-yl)-3-(1,2,3,4-tetrahydro-naphthalen-2-yl)urea]
29 | 1 to 10 | O=C(Nc1ccc2c(c1)OCC(=O)N2Cc1ccccc1)NC1Cc2ccccc2C1 [Example 136, 1-(4-benzyl-3-oxo-3,4-dihydro-2H-benzo[b][1, 4]oxazin-7-yl)-3-(2,3-dihydro-1H-inden-2-yl)urea]
30 | 1 to 10 | O=C(Nc1ccc2c(c1)OCC(=O)N2Cc1ccc(O)cc1)Nc1ccc2cc[nH]c2c1 [Example 139, 1-(4-(4-hydroxybenzyl)-3-oxo-3,4-dihydro-2H-benzo[b][1, 4]oxazin-7-yl)-3-(1H-indol-6-yl)urea]
31 | 1 to 10 | COC(=O)c1ccccc1CN1C(=O)COc2cc(NC(=O)Nc3ccc4cc[nH]c4c3)ccc21 [Example 140, methyl 2-((7-(3-(1H-indol-6-yl)ureido)-3-oxo-2,3-dihydro-4H-benzo[b][1, 4]oxazin-4-yl)methyl) benzoate]
32 | 1 to 10 | O=C(Nc1ccc2c(c1)OCC(=O)N2Cc1ccccc1)N1CCc2ccccc2C1 [Example 141, N-(4-benzyl-3-oxo-3,4-dihydro-2H-benzo[b][1, 4]oxazin-7-yl)-3,4-dihydro-isoquinoline-2(1H)-carboxamide]
33 | 1 to 10 | O=C(Nc1ccc2c(c1)NCC2)Nc1ccc2c(c1)OCC(=O)N2Cc1ccccc1 [Example 142, 1-(4-benzyl-3-oxo-3,4-dihydro-2H-benzo[b][1, 4]oxazin-7-yl)-3-(indolin-6-yl)urea]
34 | 1 to 10 | NC(=O)c1ccccc1CN1C(=O)COc2cc(NC(=O)Nc3ccc4cc[nH]c4c3)ccc21 [Example 144, 2-((7-(3-(1H-indol-6-yl)ureido)-3-oxo-2,3-dihydro-4H-benzo[b][1, 4]oxazin-4-yl)methyl) benzamide]
35 | 1 to 10 | O=C(Nc1ccc2c(c1)OCC(=O)N2CC1COCCO1)Nc1ccc2cc[nH]c2c1 (stereo not drawn) [Example 145, l-(4-((1,4-dioxan-2-yl)methyl)-3-oxo-3,4-dihydro-2H-benzo[b][1, 4]oxazin-7-yl)-3-(1H-indol-6-yl)urea]

From US20230124361A1, “SMALL MOLECULE STING ANTAGONISTS” (CURADEV PHARMA PVT. LTD., priority 2020, published 2023)
